Results on 37 substances are retold here after patent publication US10393744B2, “Peptides for targeting colorectal cancer, and medical use thereof” (UNIVERSITY OF ULSAN FOUNDATION FOR INDUSTRY COOPERATION, priority 2014, dated 2019).

Assay [1] deals with Radio-sensitive colorectal cancer tissue of patient (case C87). As to the kind of experiment: In vivo/ex vivo imaging and phage elution of Cy5.5-labeled peptide-expressing phages in mouse model transplanted with patient's colorectal cancer tissue (Example 4). Also on record: species or system nude mouse. The conditions noted are these: for in vivo ROI: Cy5.5 fluorescence total flux standardized to Cy5.5 dye control; for pfu/mg (concentration of eluted phages relative to weight of cancer tissue) / ex vivo ROI: extracted cancer tissue; for ex vivo ROI: standardized to Cy5.5 dye control. An excerpt:
(§1) Then, the distributed cancer tissue was kept in a specific preservative solution and transferred directly to an animal chamber, so as to maintain a state in which the cancer tissue was not separated from a patient yet. After an NOD/SCID mouse was anesthetized via intraperitoneal injection of anesthetics, the cancer tissue was cut into pieces each having a size of 3×3 mm. Next, each of both flanks of the NOD/SCID mouse was transplanted with a piece of the cut cancer tissues, and sutured. The NOD/SCID mouse was then recovered on a heating pad for about 2 hours (conditions of the preservative solution: HBSS containing 100 IU/ml penicillin, 100 μg/ml streptomycin, 100 μg/ml gentamicin, 2.5 μg/ml amphotericin B, and 5% fetal bovine serum). After completion of the transplantation, the NOD/SCID mouse was raised until tumors were formed. Meanwhile, the formation and growth of tumors were checked at least once a week. When the transplanted cancer tissues grew to a size of at least 500 mm^3, an extraction process was performed thereon. Then, the extracted cancer tissues were each cut into pieces each having a size of 3×3 mm for subculturing. A nude mouse was anesthetized via intraperitoneal injection of anesthetics, and a piece of the cut cancer tissues was transplanted subcutaneously on the right thigh of the nude mouse. A transplantation site was changed from the flank to the thigh so that irradiation can be locally done without affecting other organs during irradiation. That is, a finally used mouse model transplanted with a patient's colorectal cancer tissue in the present invention was a mouse model established in a way that a cancer tissue that underwent subculturing four times was re-transplanted to form a cancer tissue. When the size of the cancer tissue was increased to about 250 mm^3, only the cancer tissue was irradiated with 2 grays (Gy) of radiation. After having recovery time for no longer than 24 hours, in vivo peptide screening was performed. Here, a non-irradiated population, which is a control group, was also subjected to screening in a separate manner.
(§2) In detail, regarding in vivo imaging verification, the peptide-expressing phage was amplified, and a process of linking a fluorescent probe (Cy5.5) was performed. In particular, 1 μg/μl of N-hydroxysuccinimide esters of Cy5.5 (Amersham) was added to 1 mL of bicarbonate buffer (pH 8.3) having the phage concentration of 10^12 plaque forming units (pfu), and then, in a condition where a dark environment was maintained, a phage-surface protein was linked to the Cy5.5 fluorescent probe at room temperature for 3 hours. That is, amine groups of the phage-surface protein were chemically linked to N-hydroxysuccinimide esters of the Cy5.5 fluorescent probe via a covalent bond. The peptide-expressing phages to which the Cy5.5 fluorescent probe was linked were each obtained by precipitation with 170 μl of 20% (w/v) PEG 8000/2.5 M NaCl solution and purification. To determine a proportion of the Cy5.5 fluorescent probe linked to each of the finally obtained phage samples, an IVIS spectrum imaging system (Xenogen) was used for measurement, and region of interest (ROI) values were determined using the software program of a corresponding device.
(§3) In addition, on the last day of the in vivo imaging, the cancer tissues were each extracted, to thereby obtain ex vivo images thereof.

The subject of assay [2] is Radio-resistant colorectal cancer tissue of patient (case C65). The assay is described as above. Also on record: species or system nude mouse. The note with it: for in vivo ROI: Cy5.5 fluorescence total flux standardized to Cy5.5 dye control; for pfu/mg (concentration of eluted phages relative to weight of cancer tissue) / ex vivo ROI: extracted cancer tissue; for ex vivo ROI: standardized to Cy5.5 dye control.
Description: as §1, §2, §3

[3] abbreviates: case C87, non-irradiated population.
The mark [4] stands for this setting: case C65, non-irradiated population.
Setting [5] is: case C87, irradiated population (2 Gy).
The mark [6] stands for this setting: case C65, irradiated population (2 Gy).

For RSTGSSC [E16], in assay [1] (setting [3]), the “in vivo ROI” value is recorded as 0.50, the “pfu/mg (concentration of eluted phages relative to weight of cancer tissue)” value was 2.14 pfu/mg and the “ex vivo ROI” value stood at 0.24.
In the same order, the values of KISLPHN [E13] are 1.50, 1.22 pfu/mg and 0.93.
Turning to QQTKNYY [E7], in assay [1] (setting [3]), the “in vivo ROI” value is on record as 2.02, the “pfu/mg (concentration of eluted phages relative to weight of cancer tissue)” value is listed as 58.32 pfu/mg and the “ex vivo ROI” value is reported as 1.38.
Consider NTWMKSK [A11], for which, in assay [2] (setting [4]), the “in vivo ROI” value worked out at 1.93, the “pfu/mg (concentration of eluted phages relative to weight of cancer tissue)” value is reported as 6.71 pfu/mg and the “ex vivo ROI” value came to 0.95.
For the substance VQMPAHS [E4], in assay [1] (setting [3]), the “in vivo ROI” value worked out at 0.84, the “pfu/mg (concentration of eluted phages relative to weight of cancer tissue)” value amounted to 5.00 pfu/mg and the “ex vivo ROI” value was 0.94.
As to NGNSNTL [F9], in assay [1] (setting [5]), the “in vivo ROI” value was determined as 1.77, the “pfu/mg (concentration of eluted phages relative to weight of cancer tissue)” value was determined as 95.24 pfu/mg and the “ex vivo ROI” value was found to be 4.45.
As for LKLGEKW [B7], in assay [2] (setting [6]), the “in vivo ROI” value is 1.72, the “pfu/mg (concentration of eluted phages relative to weight of cancer tissue)” value is listed as 3.45 pfu/mg and the “ex vivo ROI” value is reported as 0.62. Besides, in assay [1] (setting [5]), the “in vivo ROI” value came out at 1.00, the “pfu/mg (concentration of eluted phages relative to weight of cancer tissue)” value was found to be 1.90 pfu/mg and the “ex vivo ROI” value is on record as 2.92.
Take MARYMSA [A10]: in assay [2] (setting [4]), the “in vivo ROI” value is reported as 2.26, the “pfu/mg (concentration of eluted phages relative to weight of cancer tissue)” value is reported as 183.16 pfu/mg and the “ex vivo ROI” value came to 1.58.
In the same order, the values of ASKSTHD [A7] are 1.80, 27.14 pfu/mg and 1.08.
On to STEHTRS [A4], for which, in assay [2] (setting [4]), the “in vivo ROI” value came out at 3.20, the “pfu/mg (concentration of eluted phages relative to weight of cancer tissue)” value was found to be 264.86 pfu/mg and the “ex vivo ROI” value worked out at 1.83.
For KLTQMM [F1], in assay [1] (setting [5]), the “in vivo ROI” value is recorded as 1.63, the “pfu/mg (concentration of eluted phages relative to weight of cancer tissue)” value is listed as 6.73 pfu/mg and the “ex vivo ROI” value is 2.39.
In the case of GGNSNQR [E5], in assay [1] (setting [3]), the “in vivo ROI” value is reported as 0.92, the “pfu/mg (concentration of eluted phages relative to weight of cancer tissue)” value was 15.96 pfu/mg and the “ex vivo ROI” value came out at 0.76.
For STMNGKV [B1], in assay [2] (setting [6]), the “in vivo ROI” value is listed as 1.52, the “pfu/mg (concentration of eluted phages relative to weight of cancer tissue)” value was determined as 16.67 pfu/mg and the “ex vivo ROI” value was 1.48.
In the case of DLLHRGA [A9], in assay [2] (setting [4]), the “in vivo ROI” value is given as 2.35, the “pfu/mg (concentration of eluted phages relative to weight of cancer tissue)” value is 54.17 pfu/mg and the “ex vivo ROI” value worked out at 0.56.
Regarding AFKSPSG [E14], in assay [1] (setting [3]), the “in vivo ROI” value turned out to be 0.70, the “pfu/mg (concentration of eluted phages relative to weight of cancer tissue)” value is given as 2.89 pfu/mg and the “ex vivo ROI” value was 0.55.
Turning to SWGDRIL [A5], in assay [2] (setting [4]), the “in vivo ROI” value is 2.16, the “pfu/mg (concentration of eluted phages relative to weight of cancer tissue)” value stood at 51.38 pfu/mg and the “ex vivo ROI” value is listed as 1.52.
For LQPKASQ [A6] the same measures were 2.75, 15.4 pfu/mg and 1.47.
As for QLWQKEQ [F5], in assay [1] (setting [5]), the “in vivo ROI” value came out at 1.63, the “pfu/mg (concentration of eluted phages relative to weight of cancer tissue)” value came to 144.55 pfu/mg and the “ex vivo ROI” value was determined as 3.72.
In the same order, the values of LGSVGRD [F7] are 1.61, 141.04 pfu/mg and 3.97.
For GQSGARF [F8] the same measures were 1.18, 6.10 pfu/mg and 1.92.
Take AIKNTKS [E8]: in assay [1] (setting [3]), the “in vivo ROI” value is given as 0.90, the “pfu/mg (concentration of eluted phages relative to weight of cancer tissue)” value worked out at 15.00 pfu/mg and the “ex vivo ROI” value is on record as 0.49.
DVSGNW [A8]: in assay [2] (setting [4]), the “in vivo ROI” value worked out at 2.99, the “pfu/mg (concentration of eluted phages relative to weight of cancer tissue)” value is 8.56 pfu/mg and the “ex vivo ROI” value is given as 1.57.
Turning to TNPYPLD [F10], in assay [1] (setting [5]), the “in vivo ROI” value amounted to 1.91, the “pfu/mg (concentration of eluted phages relative to weight of cancer tissue)” value turned out to be 7.86 pfu/mg and the “ex vivo ROI” value amounted to 1.74.
VPSQKSK [B4]: in assay [2] (setting [6]), the “in vivo ROI” value is listed as 2.12, the “pfu/mg (concentration of eluted phages relative to weight of cancer tissue)” value amounted to 20.62 pfu/mg and the “ex vivo ROI” value came to 1.36.
For LKTSGTY [E15], in assay [1] (setting [3]), the “in vivo ROI” value was 0.77, the “pfu/mg (concentration of eluted phages relative to weight of cancer tissue)” value turned out to be 6.13 pfu/mg and the “ex vivo ROI” value is listed as 0.47.
For DETSGQI [E12] the same measures were 1.24, 5.56 pfu/mg and 1.07.
As for GYSSFNR [B6], in assay [2] (setting [6]), the “in vivo ROI” value came out at 3.03, the “pfu/mg (concentration of eluted phages relative to weight of cancer tissue)” value is reported as 211.76 pfu/mg and the “ex vivo ROI” value is given as 2.06. In addition, in assay [1] (setting [3]), the “in vivo ROI” value is reported as 1.12, the “pfu/mg (concentration of eluted phages relative to weight of cancer tissue)” value is reported as 3.96 pfu/mg and the “ex vivo ROI” value was determined as 0.62.
With TVRSSAE [B3], in assay [2] (setting [6]), the “in vivo ROI” value is recorded as 2.38, the “pfu/mg (concentration of eluted phages relative to weight of cancer tissue)” value is 195.40 pfu/mg and the “ex vivo ROI” value is 1.63.
Turning to DNSKLVE [F4], in assay [1] (setting [5]), the “in vivo ROI” value is reported as 1.59, the “pfu/mg (concentration of eluted phages relative to weight of cancer tissue)” value turned out to be 69.18 pfu/mg and the “ex vivo ROI” value turned out to be 3.11.
For SFFPFST [F3] the same measures were 1.07, 22.31 pfu/mg and 2.64.
In the case of HKTEHRS [E18], in assay [1] (setting [3]), the “in vivo ROI” value was 0.69, the “pfu/mg (concentration of eluted phages relative to weight of cancer tissue)” value is recorded as 4.15 pfu/mg and the “ex vivo ROI” value is 0.21.
Regarding TVRTSAV [E9], in assay [1] (setting [3]), the “in vivo ROI” value came out at 1.27, the “pfu/mg (concentration of eluted phages relative to weight of cancer tissue)” value stood at 86.40 pfu/mg and the “ex vivo ROI” value was 1.20.
In the same order, the values of MNFIQKN [E11] are 1.05, 4.43 pfu/mg and 0.34.
For TAFSLGK [E6] the same measures were 0.78, 4.24 pfu/mg and 0.77.
For the substance YVSKNNS [E17], in assay [1] (setting [3]), the “in vivo ROI” value came out at 1.66, the “pfu/mg (concentration of eluted phages relative to weight of cancer tissue)” value came out at 204.00 pfu/mg and the “ex vivo ROI” value turned out to be 1.29.
Regarding SNVYDHN [A3], in assay [2] (setting [4]), the “in vivo ROI” value was found to be 1.62, the “pfu/mg (concentration of eluted phages relative to weight of cancer tissue)” value came out at 34.8 pfu/mg and the “ex vivo ROI” value came out at 0.67.
Consider LTGSVNK [E10], for which, in assay [1] (setting [3]), the “in vivo ROI” value is given as 1.19, the “pfu/mg (concentration of eluted phages relative to weight of cancer tissue)” value was 2.25 pfu/mg and the “ex vivo ROI” value is on record as 1.00.
